The target of assay [1] is T1, Amyloid-beta precursor protein (Homo sapiens, UniProt P05067). In words: Inhibition of amyloid beta 1 to 42 (unknown origin) CuCl2 induced aggregation at 40 uM by ThT fluorometric assay relative to control.
The target in assay [2] is T2, Acetylcholinesterase (Electrophorus electricus, UniProt O42275). The assay is described as follows: Inhibition of electric eel AChE by Ellman's method.
Assay [3] deals with T3, Beta-secretase 1 (Homo sapiens, UniProt P56817). The assay is described as follows: Inhibition of BACE1 (unknown origin) at 50 uM by FRET-based enzyme assay relative to control.
In assay [4] the target is T4, Cholinesterase (Equus caballus, UniProt P81908). In words: Inhibition of equine BChE using butyrylthiocholine iodide incubated for 3 mins by Ellman's method.
In assay [5] the target is Microtubule-associated protein tau (Homo sapiens) (UniProt P10636). In words: Inhibition of tau (306 to 336 residue) (unknown origin) aggregation at 50 uM incubated overnight by ThT fluorometric assay relative to control.
Assay [6] has as its target T5, Acetylcholinesterase (Homo sapiens, UniProt P22303). In words: Inhibition of human erythrocyte AChE using ATC iodide as substrate preincubated for 5 mins followed by substrate addition measured Ellmans method.
In assay [7] the target is T6, Cholinesterase (Homo sapiens, UniProt P06276). In words: Inhibition of human […] BChE using BTC iodide as substrate preincubated for 5 mins followed by substrate addition measured Ellmans method.
For assay [8], the target named is T1, Amyloid-beta precursor protein. The assay is described as follows: Inhibition of amyloid beta 1 to 42 (unknown origin) self aggregation at 50 uM for 24 hrs by ThT fluorometric assay relative to control.
Assay [9] has as its target T5, Acetylcholinesterase. In words: Inhibition of human AChE.
The target in assay [10] is T6, Cholinesterase. The assay is described as follows: Inhibition of human BChE.
Assay [11] has as its target T1, Amyloid-beta precursor protein. In words: Inhibition of amyloid beta 42 (unknown origin) fibrillization at 44 uM relative to control.
The target in assay [12] is T7, Acetylcholinesterase (Torpedo californica, UniProt P04058). In words: Inhibition of pacific electric ray AChE incubated for 15 mins. Also on record: species or system Tetronarce californica.
For assay [13], the target named is T1, Amyloid-beta precursor protein. The assay is described as follows: Inhibition of amyloid beta 42 (unknown origin) self aggregation at 80 uM incubated for 24 hrs by fluoroscence emission relative to control.
The target of assay [14] is T2, Acetylcholinesterase. The assay is described as follows: Inhibition of electric eel AChE incubated for 15 mins by Ellman's method.
The target of assay [15] is T4, Cholinesterase. The assay is described as follows: Inhibition of equine BChE incubated for 15 mins by Ellman's method.
For assay [16], the target named is T3, Beta-secretase 1. In words: Inhibition of BACE1 (unknown origin) expressed in purified baculovirus using RhEVNLDAEFK-Quencher as substrate incubated at 50 uM for 90 mins in dark relative to control.
The target of assay [17] is T1, Amyloid-beta precursor protein. In words: Inhibition of amyloid beta 1 to 42 (unknown origin) aggregation at 50 uM measured every 10 mins for 72 hrs by ThT fluorometric assay relative to control.
Assay [18] deals with T5, Acetylcholinesterase. The assay is described as follows: Inhibition of human AChE by Ellmans method.
The target in assay [19] is T6, Cholinesterase. The assay is described as follows: Inhibition of human BChE by Ellmans method.
Assay [20] has as its target T3, Beta-secretase 1. The assay is described as follows: Inhibition of BACE1 (unknown origin) by FRET-based fluorescent analysis.
Assay [21] has as its target T5, Acetylcholinesterase. In words: Inhibition of human recombinant AChE preincubated for 5 mins followed by substrate addition measured every 2 mins by Ellmans method.
Assay [22] deals with T6, Cholinesterase. In words: Inhibition of human recombinant BChE by Ellmans method preincubated for 5 mins followed by substrate addition measured every 2 mins.
Assay [23] deals with T1, Amyloid-beta precursor protein. In words: Inhibition of amyloid beta 42 (unknown origin) self aggregation incubated for 48 hrs by fluoroMax-4 spectrofluorometeric analysis.
Assay [24] shares this target. In words: Inhibition of amyloid beta 42 (unknown origin) aggregation at 25 uM by Thioflavin T-based fluorescence assay relative to control.
Assay [25] addresses T2, Acetylcholinesterase. The assay is described as follows: Inhibition of electric eel AchE using acetylthiocholine as substrate by Ellman's method.
In assay [26] the target is T4, Cholinesterase. In words: Inhibition of equine BChE using butyrylthiocholine as substrate by Ellman's method.
Assay [27] deals with T1, Amyloid-beta precursor protein. The assay is described as follows: Inhibition of amyloid beta 42 (unknown origin) aggregation at 100 uM relative to control.
Assay [28] deals with T7, Acetylcholinesterase. The assay is described as follows: Inhibition of pacific electric ray AChE. Also on record: species or system Tetronarce californica.
In assay [29] the target is T1, Amyloid-beta precursor protein. The assay is described as follows: Inhibition of amyloid beta 42 (unknown origin) aggregation at 80 uM relative to control.
For assay [30] the target is unchanged. The assay is described as follows: Inhibition of amyloid beta 42 (unknown origin) self aggregation at 25 uM by ThT fluorometric assay relative to control.

T2 sequence (O42275 whole entry): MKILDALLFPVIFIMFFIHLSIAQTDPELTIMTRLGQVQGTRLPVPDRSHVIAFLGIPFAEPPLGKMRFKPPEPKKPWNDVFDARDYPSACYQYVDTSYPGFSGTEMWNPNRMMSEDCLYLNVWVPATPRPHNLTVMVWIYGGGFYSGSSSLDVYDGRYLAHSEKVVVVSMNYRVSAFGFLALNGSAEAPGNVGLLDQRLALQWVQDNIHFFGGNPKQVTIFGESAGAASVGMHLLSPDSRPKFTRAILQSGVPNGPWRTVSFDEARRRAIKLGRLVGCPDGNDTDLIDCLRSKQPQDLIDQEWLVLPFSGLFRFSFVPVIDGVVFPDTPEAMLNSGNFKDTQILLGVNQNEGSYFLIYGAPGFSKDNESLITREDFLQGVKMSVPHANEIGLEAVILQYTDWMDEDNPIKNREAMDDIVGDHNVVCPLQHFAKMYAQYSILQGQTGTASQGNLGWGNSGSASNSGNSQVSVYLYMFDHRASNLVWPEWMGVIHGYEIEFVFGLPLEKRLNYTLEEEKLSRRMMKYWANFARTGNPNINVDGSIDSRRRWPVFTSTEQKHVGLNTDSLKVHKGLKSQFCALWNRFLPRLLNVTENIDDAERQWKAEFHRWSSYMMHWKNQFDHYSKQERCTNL
T4 sequence (P81908 whole entry): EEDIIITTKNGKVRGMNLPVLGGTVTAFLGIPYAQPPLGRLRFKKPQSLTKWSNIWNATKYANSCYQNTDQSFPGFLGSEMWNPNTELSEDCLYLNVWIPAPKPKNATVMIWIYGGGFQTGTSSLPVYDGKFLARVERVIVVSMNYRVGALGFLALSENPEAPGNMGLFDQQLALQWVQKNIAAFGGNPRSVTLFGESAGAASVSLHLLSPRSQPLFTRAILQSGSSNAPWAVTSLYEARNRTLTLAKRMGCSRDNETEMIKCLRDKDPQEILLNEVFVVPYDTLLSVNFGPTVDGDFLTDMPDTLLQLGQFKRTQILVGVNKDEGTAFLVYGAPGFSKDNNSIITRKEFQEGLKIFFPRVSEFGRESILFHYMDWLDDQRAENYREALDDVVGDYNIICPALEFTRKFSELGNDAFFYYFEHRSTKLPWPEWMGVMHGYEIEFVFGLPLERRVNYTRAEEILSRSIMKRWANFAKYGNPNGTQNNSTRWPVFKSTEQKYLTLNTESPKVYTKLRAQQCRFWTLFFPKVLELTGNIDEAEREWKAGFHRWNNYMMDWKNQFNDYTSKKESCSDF
T1 sequence (P05067 whole entry): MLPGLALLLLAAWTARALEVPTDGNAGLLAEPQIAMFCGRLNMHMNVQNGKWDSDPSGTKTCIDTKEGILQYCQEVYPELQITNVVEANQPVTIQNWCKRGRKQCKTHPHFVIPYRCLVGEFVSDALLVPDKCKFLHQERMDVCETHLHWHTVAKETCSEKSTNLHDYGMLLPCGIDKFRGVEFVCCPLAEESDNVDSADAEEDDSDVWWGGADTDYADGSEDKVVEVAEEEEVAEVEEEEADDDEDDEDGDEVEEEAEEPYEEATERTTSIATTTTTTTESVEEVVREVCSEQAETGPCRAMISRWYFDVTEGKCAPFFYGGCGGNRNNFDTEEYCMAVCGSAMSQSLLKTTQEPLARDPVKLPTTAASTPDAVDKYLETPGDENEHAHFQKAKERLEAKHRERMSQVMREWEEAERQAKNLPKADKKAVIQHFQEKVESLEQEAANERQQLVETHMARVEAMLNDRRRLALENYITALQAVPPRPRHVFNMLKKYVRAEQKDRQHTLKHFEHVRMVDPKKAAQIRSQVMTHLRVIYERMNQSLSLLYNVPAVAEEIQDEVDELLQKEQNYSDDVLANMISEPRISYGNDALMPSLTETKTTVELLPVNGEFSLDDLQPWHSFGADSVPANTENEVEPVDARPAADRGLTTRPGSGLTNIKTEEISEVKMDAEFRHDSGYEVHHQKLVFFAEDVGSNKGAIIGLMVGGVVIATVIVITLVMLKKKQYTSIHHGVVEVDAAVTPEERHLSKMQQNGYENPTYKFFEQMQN
T3 sequence (P56817 whole entry): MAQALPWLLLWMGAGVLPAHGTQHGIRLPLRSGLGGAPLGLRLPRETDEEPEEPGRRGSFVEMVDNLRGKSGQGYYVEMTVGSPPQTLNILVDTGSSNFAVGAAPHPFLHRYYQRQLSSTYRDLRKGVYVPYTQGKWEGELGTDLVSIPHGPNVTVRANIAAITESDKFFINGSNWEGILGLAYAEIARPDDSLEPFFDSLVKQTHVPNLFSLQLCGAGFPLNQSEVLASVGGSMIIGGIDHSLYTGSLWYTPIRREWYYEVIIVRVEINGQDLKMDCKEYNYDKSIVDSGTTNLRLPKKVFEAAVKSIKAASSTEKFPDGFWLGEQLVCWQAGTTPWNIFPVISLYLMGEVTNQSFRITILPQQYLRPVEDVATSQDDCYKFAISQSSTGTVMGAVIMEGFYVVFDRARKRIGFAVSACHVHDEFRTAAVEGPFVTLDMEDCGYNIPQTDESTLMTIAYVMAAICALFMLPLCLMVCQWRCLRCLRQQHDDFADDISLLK
T6 sequence (P06276 whole entry): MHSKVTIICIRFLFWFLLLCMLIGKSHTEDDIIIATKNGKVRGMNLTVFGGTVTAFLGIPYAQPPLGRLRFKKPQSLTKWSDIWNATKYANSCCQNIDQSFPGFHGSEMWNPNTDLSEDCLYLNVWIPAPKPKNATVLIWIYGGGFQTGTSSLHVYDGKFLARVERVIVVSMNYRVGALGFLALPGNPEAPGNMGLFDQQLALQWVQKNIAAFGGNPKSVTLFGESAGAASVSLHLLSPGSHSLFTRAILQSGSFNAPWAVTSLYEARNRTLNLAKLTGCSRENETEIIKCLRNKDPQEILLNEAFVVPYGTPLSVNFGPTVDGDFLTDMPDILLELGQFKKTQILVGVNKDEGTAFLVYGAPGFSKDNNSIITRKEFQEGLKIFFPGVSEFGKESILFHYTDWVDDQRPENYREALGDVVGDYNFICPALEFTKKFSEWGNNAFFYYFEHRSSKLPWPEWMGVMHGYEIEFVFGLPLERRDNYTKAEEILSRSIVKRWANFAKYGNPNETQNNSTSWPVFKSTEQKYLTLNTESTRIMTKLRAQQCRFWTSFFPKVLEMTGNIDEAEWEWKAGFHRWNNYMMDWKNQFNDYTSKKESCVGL
T5 sequence (P22303 whole entry): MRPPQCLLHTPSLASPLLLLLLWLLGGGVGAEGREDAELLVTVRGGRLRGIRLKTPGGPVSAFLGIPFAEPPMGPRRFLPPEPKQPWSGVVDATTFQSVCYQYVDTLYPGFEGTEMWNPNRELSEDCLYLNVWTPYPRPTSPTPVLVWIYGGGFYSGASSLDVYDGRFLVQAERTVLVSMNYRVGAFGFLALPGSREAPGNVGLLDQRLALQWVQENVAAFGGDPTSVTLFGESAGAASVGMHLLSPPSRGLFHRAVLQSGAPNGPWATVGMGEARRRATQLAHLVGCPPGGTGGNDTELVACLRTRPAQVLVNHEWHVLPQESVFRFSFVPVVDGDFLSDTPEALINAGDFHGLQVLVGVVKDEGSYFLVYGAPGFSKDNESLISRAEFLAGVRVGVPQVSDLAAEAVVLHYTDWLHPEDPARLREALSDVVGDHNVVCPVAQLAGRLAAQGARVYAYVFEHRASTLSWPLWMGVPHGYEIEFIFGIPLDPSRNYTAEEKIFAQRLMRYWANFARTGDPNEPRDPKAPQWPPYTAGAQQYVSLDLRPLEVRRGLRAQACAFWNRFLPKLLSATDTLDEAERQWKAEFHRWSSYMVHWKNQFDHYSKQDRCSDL
T7 sequence (P04058 whole entry): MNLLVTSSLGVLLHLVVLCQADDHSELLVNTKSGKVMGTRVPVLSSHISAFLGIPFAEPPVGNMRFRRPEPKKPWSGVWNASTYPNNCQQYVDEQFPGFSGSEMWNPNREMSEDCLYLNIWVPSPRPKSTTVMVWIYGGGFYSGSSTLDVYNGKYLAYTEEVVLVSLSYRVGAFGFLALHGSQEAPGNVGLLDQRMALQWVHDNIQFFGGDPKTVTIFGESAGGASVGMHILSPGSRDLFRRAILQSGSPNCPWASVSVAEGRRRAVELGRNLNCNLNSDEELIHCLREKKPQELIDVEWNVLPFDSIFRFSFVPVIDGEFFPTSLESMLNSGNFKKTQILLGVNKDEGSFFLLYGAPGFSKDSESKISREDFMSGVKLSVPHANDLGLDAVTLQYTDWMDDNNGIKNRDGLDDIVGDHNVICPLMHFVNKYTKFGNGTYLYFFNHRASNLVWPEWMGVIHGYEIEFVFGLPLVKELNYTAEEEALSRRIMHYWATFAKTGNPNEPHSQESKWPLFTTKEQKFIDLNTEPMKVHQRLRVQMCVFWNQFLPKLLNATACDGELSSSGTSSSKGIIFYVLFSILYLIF
Microtubule-associated protein tau (Homo sapiens), sequence (P10636 whole entry): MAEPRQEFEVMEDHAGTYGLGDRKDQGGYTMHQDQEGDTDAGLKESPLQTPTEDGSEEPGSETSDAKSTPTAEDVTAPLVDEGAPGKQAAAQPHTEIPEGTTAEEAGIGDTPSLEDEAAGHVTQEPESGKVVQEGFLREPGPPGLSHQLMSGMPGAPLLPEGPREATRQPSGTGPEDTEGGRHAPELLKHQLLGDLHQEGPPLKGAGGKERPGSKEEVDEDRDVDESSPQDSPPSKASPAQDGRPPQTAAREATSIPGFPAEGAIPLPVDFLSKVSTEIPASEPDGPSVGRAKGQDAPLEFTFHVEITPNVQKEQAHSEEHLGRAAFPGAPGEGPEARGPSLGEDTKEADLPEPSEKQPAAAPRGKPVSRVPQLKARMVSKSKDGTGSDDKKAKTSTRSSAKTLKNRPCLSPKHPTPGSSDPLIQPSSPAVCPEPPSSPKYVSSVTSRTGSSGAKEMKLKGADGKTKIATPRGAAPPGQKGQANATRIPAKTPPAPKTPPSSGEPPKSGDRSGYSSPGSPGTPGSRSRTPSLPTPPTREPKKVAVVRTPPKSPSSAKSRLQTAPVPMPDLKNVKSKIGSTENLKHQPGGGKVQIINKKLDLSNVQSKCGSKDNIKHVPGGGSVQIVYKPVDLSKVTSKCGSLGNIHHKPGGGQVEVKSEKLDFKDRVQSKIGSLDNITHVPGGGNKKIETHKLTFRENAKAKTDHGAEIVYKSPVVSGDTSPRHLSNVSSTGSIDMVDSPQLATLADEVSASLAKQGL

In turn, `CC(C)C1NC(=O)C=C1NCCN1CCN(Cc2ccccc2)CC1` (centres undefined) showed an inhibition in assay [1] of 78.4%.
For the compound `O=C(Nc1ccc(Oc2ccc3ccc(=O)oc3c2)cc1)c1cc(-c2cccc([N+](=O)[O-])c2)on1`, the IC50 in [2] was 1.23 µM. Also, the inhibition in assay [3] was 48.5%.
Take `O=C(CCCCC1CCSS1)NCc1cn(CCCCOc2ccc3c(=O)ccoc3c2)nn1` (centres undefined): the IC50 in assay [4] came to 7.5 µM.
For the compound `CCOC(=O)C1=C(C)N(CCC2CCN(Cc3ccccc3)CC2)C(=O)NC1c1coc2c(Cl)cc(Cl)cc2c1=O` (centres undefined), the inhibition worked out at 73.7% in [5] and 63.6% in assay [8]. Also, the IC50 in [6] is 0.06 µM; in assay [7], 17.3 µM.
Turning to `COC(=O)[C@H]1[C@H]2C[C@@H]3c4[nH]c5cc(OC)ccc5c4CCN3C[C@H]2C[C@@H](OC(=O)c2cc(OC)c(OC)c(OC)c2)[C@@H]1OC` [RESERPINE], the IC50 was 1.7 µM in assay [9] and 2.8 µM in assay [10]. In [11], this compound had an inhibition of 68%.
On to `S=C(NCCCCNc1c2c(nc3ccccc13)CCCC2)Nc1c[nH]c2ccccc12`, for which the IC50 was found to be 0.025 µM in [9] and 0.076 µM in [10].
In assay [12], `COc1ccc(C(=O)CCC(=O)NCCCNc2c3c(nc4ccccc24)CCCC3)c2ccccc12` had an IC50 of 0.12 µM. This compound also came in with an inhibition in assay [13] of 70.5%.
Take `O=C(NC1CCN(Cc2ccccc2)CC1)c1cc(-c2cccc([N+](=O)[O-])c2)on1`: the IC50 was determined as 16.1 µM in assay [14] and 15.2 µM in [15]. The inhibition in assay [16] turned out to be 24.3%.
For `Clc1ccc2c(NCCCCCN3c4ccccc4Sc4ccccc43)c3c(nc2c1)CCCC3`, the IC50 came to 0.008 µM in assay [9] and 0.19 µM in assay [10]. In addition, the inhibition worked out at 74.1% in assay [17] and 50.5% in assay [5].
As for `FC(F)(F)c1ccc(-c2nnc(CNC3CCN(Cc4ccccc4)C3)o2)cc1` (centres undefined), the IC50 in assay [18] was determined as 0.064 µM; in assay [19] it was 0.074 µM; in [20] it was 0.143 µM.
Take `O=C(NCCCNc1c2c(nc3cc(Cl)ccc13)CCCC2)c1nc2ccc([N+](=O)[O-])cc2s1`: the IC50 in assay [21] was determined as 0.018 µM; in assay [22], 4660 µM; in assay [23], 3.8 µM.
The compound `CCc1cc(-c2nnc(Nc3ccccc3Cl)s2)c(O)cc1O` displayed an inhibition in assay [24] of 55.8%. Moreover, the IC50 was found to be 0.031 µM in assay [25] and 18.3 µM in assay [26].
In the case of `COC(=O)c1cc(C(=O)c2ccc(OC)cc2)n2ccc(CCCc3cc[n+](C)cc3)cc12`, the figures for the half-maximal inhibitory concentration (IC50) in [9] and in [10] were 3.3 µM and 38.9 µM, respectively. This compound yielded an inhibition in assay [27] of 55%.
Turning to `COc1cccc2cc(C(=O)NCCCNc3c4c(nc5cc(Cl)ccc35)CCCC4)oc12`, the midpoint of inhibition in assay [28], the IC50, lay at 0.13 µM. Moreover, the inhibition in assay [29] came to 57.8%.
Take `O=C(/C=C/c1cccs1)N1CCc2ccccc2C1`: the IC50 is 2.5 µM in assay [19] and 19.4 µM in assay [2]. The inhibition in assay [30] was determined as 65.2%.

The record behind these values is ChEMBL document CHEMBL5338719, “Recent advance on pleiotropic cholinesterase inhibitors bearing amyloid modulation efficacy” (Eur J Med Chem, 2022).
